Key:
[1] = molecular target: T1, ActRIIA (Homo sapiens, UniProt P27037); test: isothermal titration calorimetry; assay type: binding
T1 construct: gene ACVR2A; kinase domain residues 191-488, N-terminal His6 removed by TEV protease, vector pFB-LIC-Bse, baculovirus Sf9; two molecules per asymmetric unit
Source text: isothermal titration calorimetry on ActRIIA

[2] = molecular target: T2, ActRIIB (Homo sapiens, UniProt Q13705); test: isothermal titration calorimetry; assay type: binding
T2 construct: gene ACVR2B; kinase domain residues 190-487, N-terminal His6 removed by TEV protease, vector pFB-LIC-Bse, baculovirus Sf9
T2 sequence (Q13705 190-487): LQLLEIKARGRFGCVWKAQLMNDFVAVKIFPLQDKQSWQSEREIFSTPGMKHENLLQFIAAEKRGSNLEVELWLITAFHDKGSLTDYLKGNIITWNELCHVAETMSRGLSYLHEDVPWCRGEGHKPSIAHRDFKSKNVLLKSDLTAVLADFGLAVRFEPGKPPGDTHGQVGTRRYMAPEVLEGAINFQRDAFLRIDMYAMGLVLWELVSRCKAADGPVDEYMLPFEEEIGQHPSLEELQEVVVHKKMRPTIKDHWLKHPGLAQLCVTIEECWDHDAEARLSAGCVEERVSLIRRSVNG
Source text: isothermal titration calorimetry on ActRIIB

T1 sequence (P27037 191-488): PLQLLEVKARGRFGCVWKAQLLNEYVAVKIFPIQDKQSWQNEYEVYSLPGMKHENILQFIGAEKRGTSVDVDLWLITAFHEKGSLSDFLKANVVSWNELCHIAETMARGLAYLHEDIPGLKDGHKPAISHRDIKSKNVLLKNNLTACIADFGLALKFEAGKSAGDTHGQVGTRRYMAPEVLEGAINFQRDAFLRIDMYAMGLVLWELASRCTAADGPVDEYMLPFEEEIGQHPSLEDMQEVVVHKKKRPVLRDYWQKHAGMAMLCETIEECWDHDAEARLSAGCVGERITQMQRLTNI

c1cc(-c2cnn3cc(-c4ccc(OCCN5CCCCC5)cc4)cnc23)ccn1 [Dorsomorphin]
Kd [1]: 58 nM | Kd [2]: 30 nM

c1ccc2c(-c3cnn4cc(-c5ccc(N6CCNCC6)cc5)cnc34)ccnc2c1 [LDN-193189]
Kd [1]: 14 nM
